In PubChem BioAssay AID1919007 (Molecular Pharmacology Branch, DTP, NCI, 2023):

Test system: A498 complex spheroids with HUVEC/MSC, growth
Test: Anticancer human tumor A498 cell line growth inhibition [AhR];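 also: seven day exposure starting three days after spheroid seeding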;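 as to viability, T/C: luminescence signal used as a surrogate for viable cells; luminescence viability scaled so 100% equals DMSO vehicle wells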
Conditions: for IC50: curve of first compound; for viability, T/C: stronger effect = lower value
Outline: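 Complex tumor spheroids co-cultured with HUVEC and human MSC stroma; AhR antagonists tested in combination with standard-of-care and investigational agents. Top concentration at or near clinical Cmax (else 10 microM), half-log dilutions; growth expressed as percent test/control.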

[1] = second compound 0.1 µM, first compound 0.0316 µM
[2] = second compound 0.1 µM, first compound 0.1 µM
[3] = second compound 0.1 µM, first compound 0.316 µM
[4] = second compound 0.1 µM, first compound 1 µM
[5] = second compound 0.1 µM, first compound 3.16 µM
[6] = second compound 0.1 µM, first compound 10 µM
[7] = second compound 0.316 µM, first compound 0.0316 µM
[8] = second compound 0.316 µM, first compound 0.1 µM
[9] = second compound 0.316 µM, first compound 0.316 µM
[10] = second compound 0.316 µM, first compound 1 µM
[11] = second compound 0.316 µM, first compound 3.16 µM
[12] = second compound 0.316 µM, first compound 10 µM
[13] = second compound 1 µM, first compound 0.0316 µM
[14] = second compound 1 µM, first compound 0.1 µM
[15] = second compound 1 µM, first compound 0.316 µM
[16] = second compound 1 µM, first compound 1 µM
[17] = second compound 1 µM, first compound 3.16 µM
[18] = second compound 1 µM, first compound 10 µM
[19] = second compound 3.16 µM, first compound 0.0316 µM
[20] = second compound 3.16 µM, first compound 0.1 µM
[21] = second compound 3.16 µM, first compound 0.316 µM
[22] = second compound 3.16 µM, first compound 1 µM
[23] = second compound 3.16 µM, first compound 3.16 µM
[24] = second compound 3.16 µM, first compound 10 µM
[25] = second compound 10 µM, first compound 0.0316 µM
[26] = second compound 10 µM, first compound 0.1 µM
[27] = second compound 10 µM, first compound 0.316 µM
[28] = second compound 10 µM, first compound 1 µM
[29] = second compound 10 µM, first compound 3.16 µM
[30] = second compound 10 µM, first compound 10 µM

In the case of `CC1(C)CCC(CN2CCN(c3ccc(C(=O)NS(=O)(=O)c4ccc(NCC5CCOCC5)c([N+](=O)[O-])c4)c(Oc4cnc5[nH]ccc5c4)c3)CC2)=C(c2ccc(Cl)cc2)C1` + Cc1cncc(-c2nc(NCCc3c[nH]c4ccccc34)c3ncn(C(C)C)c3n2)c1, the IC50 (second compound 0.1 µM) is reported as 5370 nM, the IC50 (second compound 0.316 µM) is reported as 5320 nM and the IC50 (second compound 1 µM) is reported as 5030 nM. The IC50 (second compound 3.16 µM) was under 31.6 nM, the IC50 (second compound 10 µM) was under 31.6 nM and the viability, T/C [1] was 88.5%. The viability, T/C [2] was 90%, the viability, T/C [3] was 85.3% and the viability, T/C [4] was 78.6%. It also gave a viability, T/C [5] of 72.3%, a viability, T/C [6] of 26% and a viability, T/C [7] of 89.2%. For the same molecule, the viability, T/C [8] was 92.2%, the viability, T/C [9] was 95.1% and the viability, T/C [10] was 78.3%. For the same molecule, the viability, T/C [11] was 71%, the viability, T/C [12] was 26.6% and the viability, T/C [13] was 84.7%. The viability, T/C [14] was 90.3%, the viability, T/C [15] was 87% and the viability, T/C [16] was 73.5%. For the same molecule, the viability, T/C [17] was 66.9%, the viability, T/C [18] was 28.3% and the viability, T/C [19] was 43.6%. The viability, T/C [20] was 43.4%, the viability, T/C [21] was 48.5% and the viability, T/C [22] was 40.9%. It also gave a viability, T/C [23] of 39.6%, a viability, T/C [24] of 24.5% and a viability, T/C [25] of 2.24%. For the same molecule, the viability, T/C [26] was 2.27%, the viability, T/C [27] was 3.12% and the viability, T/C [28] was 4.57%. The viability, T/C [29] was 3.12% and the viability, T/C [30] was 5.62%.

`CCN(c1cc(-c2ccc(CN3CCOCC3)cc2)cc(C(=O)NCc2c(C)cc(C)[nH]c2=O)c1C)C1CCOCC1` + Cc1cncc(-c2nc(NCCc3c[nH]c4ccccc34)c3ncn(C(C)C)c3n2)c1 was tested, and the IC50 (second compound 0.1 µM) was over 3000 nM, the IC50 (second compound 0.316 µM) was over 3000 nM and the IC50 (second compound 1 µM) was over 3000 nM. For the same molecule, the IC50 (second compound 3.16 µM) was under 9.49 nM, the IC50 (second compound 10 µM) was under 9.49 nM and the viability, T/C (second compound 0.1 µM, first compound 0.00949 µM) was 94%. For the same molecule, the viability, T/C (second compound 0.1 µM, first compound 0.03 µM) was 97%, the viability, T/C (second compound 0.1 µM, first compound 0.0949 µM) was 90.2% and the viability, T/C (second compound 0.1 µM, first compound 0.3 µM) was 87.7%. It also gave a viability, T/C (second compound 0.1 µM, first compound 0.949 µM) of 97.7%, a viability, T/C (second compound 0.1 µM, first compound 3 µM) of 88.4% and a viability, T/C (second compound 0.316 µM, first compound 0.00949 µM) of 103%. The viability, T/C (second compound 0.316 µM, first compound 0.03 µM) was 94.2%, the viability, T/C (second compound 0.316 µM, first compound 0.0949 µM) was 101% and the viability, T/C (second compound 0.316 µM, first compound 0.3 µM) was 90%. It also gave a viability, T/C (second compound 0.316 µM, first compound 0.949 µM) of 97.4%, a viability, T/C (second compound 0.316 µM, first compound 3 µM) of 91.5% and a viability, T/C (second compound 1 µM, first compound 0.00949 µM) of 88.8%. For the same molecule, the viability, T/C (second compound 1 µM, first compound 0.03 µM) was 91.4%, the viability, T/C (second compound 1 µM, first compound 0.0949 µM) was 86.1% and the viability, T/C (second compound 1 µM, first compound 0.3 µM) was 81.3%. For the same molecule, the viability, T/C (second compound 1 µM, first compound 0.949 µM) was 82%, the viability, T/C (second compound 1 µM, first compound 3 µM) was 88.1% and the viability, T/C (second compound 3.16 µM, first compound 0.00949 µM) was 44.6%. It also gave a viability, T/C (second compound 3.16 µM, first compound 0.03 µM) of 45%, a viability, T/C (second compound 3.16 µM, first compound 0.0949 µM) of 47.2% and a viability, T/C (second compound 3.16 µM, first compound 0.3 µM) of 44.5%. For the same molecule, the viability, T/C (second compound 3.16 µM, first compound 0.949 µM) was 45.7%, the viability, T/C (second compound 3.16 µM, first compound 3 µM) was 39.5% and the viability, T/C (second compound 10 µM, first compound 0.00949 µM) was 4.35%. It also gave a viability, T/C (second compound 10 µM, first compound 0.03 µM) of 4.58%, a viability, T/C (second compound 10 µM, first compound 0.0949 µM) of 6.5% and a viability, T/C (second compound 10 µM, first compound 0.3 µM) of 4.8%. It also gave a viability, T/C (second compound 10 µM, first compound 0.949 µM) of 2.06% and a viability, T/C (second compound 10 µM, first compound 3 µM) of 1.26%.

For `Cn1ncnc1C1c2n[nH]c(=O)c3cc(F)cc(c23)NC1c1ccc(F)cc1` (stereo not given) + Cc1cncc(-c2nc(NCCc3c[nH]c4ccccc34)c3ncn(C(C)C)c3n2)c1, the IC50 (second compound 0.1 µM) was over 100 nM, the IC50 (second compound 0.316 µM) was over 100 nM and the IC50 (second compound 1 µM) was over 100 nM. For the same molecule, the IC50 (second compound 3.16 µM) was over 100 nM, the IC50 (second compound 10 µM) was under 0.316 nM and the viability, T/C (second compound 0.1 µM, first compound 0.000316 µM) was 96.5%. For the same molecule, the viability, T/C (second compound 0.1 µM, first compound 0.001 µM) was 96.6%, the viability, T/C (second compound 0.1 µM, first compound 0.00316 µM) was 96.6% and the viability, T/C (second compound 0.1 µM, first compound 0.01 µM) was 89%. For the same molecule, the viability, T/C [1] was 87%, the viability, T/C [2] was 94.1% and the viability, T/C (second compound 0.316 µM, first compound 0.000316 µM) was 97.1%. For the same molecule, the viability, T/C (second compound 0.316 µM, first compound 0.001 µM) was 99.2%, the viability, T/C (second compound 0.316 µM, first compound 0.00316 µM) was 92.9% and the viability, T/C (second compound 0.316 µM, first compound 0.01 µM) was 92.3%. For the same molecule, the viability, T/C [7] was 95.2%, the viability, T/C [8] was 92.3% and the viability, T/C (second compound 1 µM, first compound 0.000316 µM) was 88.4%. The viability, T/C (second compound 1 µM, first compound 0.001 µM) was 98.9%, the viability, T/C (second compound 1 µM, first compound 0.00316 µM) was 91.2% and the viability, T/C (second compound 1 µM, first compound 0.01 µM) was 84.4%. It also gave a viability, T/C [13] of 85.5%, a viability, T/C [14] of 89.8% and a viability, T/C (second compound 3.16 µM, first compound 0.000316 µM) of 60.6%. For the same molecule, the viability, T/C (second compound 3.16 µM, first compound 0.001 µM) was 63.6%, the viability, T/C (second compound 3.16 µM, first compound 0.00316 µM) was 65% and the viability, T/C (second compound 3.16 µM, first compound 0.01 µM) was 70.1%. The viability, T/C [19] was 59.8%, the viability, T/C [20] was 67.8% and the viability, T/C (second compound 10 µM, first compound 0.000316 µM) was 5.06%. It also gave a viability, T/C (second compound 10 µM, first compound 0.001 µM) of 6.23%, a viability, T/C (second compound 10 µM, first compound 0.00316 µM) of 6.28% and a viability, T/C (second compound 10 µM, first compound 0.01 µM) of 7.11%. It also gave a viability, T/C [25] of 6.12% and a viability, T/C [26] of 8.13%.

Work on `NS(=O)(=O)OCC1CC(n2ccc3c(NC4CCc5ccccc54)ncnc32)CC1O` (stereo not given) + Cc1cncc(-c2nc(NCCc3c[nH]c4ccccc34)c3ncn(C(C)C)c3n2)c1 yielded an IC50 (second compound 0.1 µM) of 448 nM, an IC50 (second compound 0.316 µM) of 412 nM and an IC50 (second compound 1 µM) of 244 nM. The IC50 (second compound 3.16 µM) was under 31.6 nM, the IC50 (second compound 10 µM) was under 31.6 nM and the viability, T/C [1] was 87.5%. It also gave a viability, T/C [2] of 86.2%, a viability, T/C [3] of 55.5% and a viability, T/C [4] of 33.3%. It also gave a viability, T/C [5] of 23.7%, a viability, T/C [6] of 18.3% and a viability, T/C [7] of 89.2%. It also gave a viability, T/C [8] of 81.6%, a viability, T/C [9] of 52.1% and a viability, T/C [10] of 35.4%. For the same molecule, the viability, T/C [11] was 22.4%, the viability, T/C [12] was 19.2% and the viability, T/C [13] was 78.3%. For the same molecule, the viability, T/C [14] was 71.3%, the viability, T/C [15] was 41.6% and the viability, T/C [16] was 29.7%. It also gave a viability, T/C [17] of 20.3%, a viability, T/C [18] of 17.9% and a viability, T/C [19] of 19.1%. For the same molecule, the viability, T/C [20] was 18.4%, the viability, T/C [21] was 18.8% and the viability, T/C [22] was 18.3%. For the same molecule, the viability, T/C [23] was 15.5%, the viability, T/C [24] was 13.8% and the viability, T/C [25] was 1.63%. The viability, T/C [26] was 1.35%, the viability, T/C [27] was 0.89% and the viability, T/C [28] was 0.94%. The viability, T/C [29] was 0.76% and the viability, T/C [30] was 0.77%.
